{"source": "patent US5326566A", "about": "“Use of dibutyl adipate and isopropyl myristate in topical and transdermal products” (Bristol-Myers Squibb Company, priority 1993, dated 1994)", "key": {"[1]": {"conditions": "applied topically; more pronounced in occluded condition; cited from earlier work"}, "[2]": {"source_text": "Only skin that appeared normal was used.\nHalobetasol propionate is commercially available by Bristol-Myers Squibb as ULTRAVATE® Cream and ULTRAVATE® Ointment. ULTRAVATE® Cream is an oil-in-water emulsion containing isopropyl palmitate and isopropyl isostearate as emollients. The ULTRAVATE® Ointment is a nonaqueous emulsion of propylene glycol in a petrolatum base.\nIn a different human skin study, the in vitro skin penetration of halobetasol propionate from ULTRAVATE® Ointment, FN8-1114-16 cream and FN8-1114-13 cream, was evaluated (see Table 3, Study II). ULTRAVATE® Ointment was used as a control in order to normalize the data, and to assist in the comparison of skin penetration of different formulations when evaluated for skin penetration in different human skin."}, "[3]": {"system": "utriculi of rhino mouse skin", "assay": "Rhino mouse utriculi model (efficacy of tretinoin formulations, reduction of utriculi diameter)", "assay_type": "in vivo", "conditions": "topical, once a day for five days, FIG. 4", "description": "Female rhino mice were obtained from the Skin and Cancer Hospital, Temple University, Philadelphia, Pennsylvania. Upon receipt, the rhino mice were treated with an anti-parasitic agent, trichlorfon (COMBOT®), to rid them of pinworms. It was administered in their drinking water for two weeks. An additional two weeks was allowed to pass without COMBOT® treatment before mice were placed on study. Animals were housed in accordance with the National Institute of Health guidelines and had free access to food and water. At the time of the study initiation, the mice were 9-14 weeks old.\nThe mice were individually housed in a plastic shoe box cage with corn cob bedding and placed in rooms illuminated with yellow lights, cycled for 12 hours on and 12 hours off during the study. […]\nThe sheets were then evaluated for changes in the sizes of the utriculi as follows: The maximum diameter of 20 representative utriculi per tissue sample were measured, using an IBM PC computer image measurement program (Microscience, Inc., Federal Way, Washington D.C.) and an Olympus microscope (200×magnification). Retinoid effects were evaluated as a percent reduction in uterine diameter by comparing mean diameter of the vehicle treated groups to that of formulation treated groups."}, "[4]": {"conditions": "prior art skin permeation enhancers; cited from earlier work"}, "[5]": {"conditions": "literature (Martindale) for dimethyl sulfoxide; cited from earlier work"}, "[6]": {"assay": "Saturation / degree of unsaturation of the oil phase", "assay_type": "physicochemical", "conditions": "0.5 wt % DBA and 10 wt % IPM as solvents in the oil phase", "excerpt": "A degree of unsaturation of 1.5 means that the amount of DBA, or DBA and IPM, present in the oil phase is one and a half times the amount required to dissolve the halobetasol propionate in the oil phase of the composition so that the final oil phase of the composition is saturated with respect to the halobetasol propionate, plus contains a 50% excess of such solvent(s).\nAn unsaturation value of 1.5 means the oil phase of the final composition contains more of the solvent system of the present invention than the minimum required to make such oil phase saturated, saturation of course being relative to the halobetasol propionate. The 1.5 unsaturation value indicates the oil phase of the final composition contains 11/2 times the amount of solvent system required to produce a final composition the oil phase of which is saturated with respect to halobetasol propionate (in other words, the oil phase of the final composition contains a 50% surplus of the solvent system of the invention)."}}, "note": "Like-named read-outs stand apart in the source and are kept apart here."}
{"smiles": "CC(O)CO", "note": "(stereo not drawn) [PG, propylene glycol]", "values": [{"measurement": "irritation/sensitization, in words", "setting": "[1]", "value": "can be a sensitizer and irritant when applied topically"}, {"measurement": "skin penetration enhancement of halobetasol propionate by solvent/enhancer, in words", "setting": "[2]", "value": "does not improve the skin penetration of halobetasol propionate any further"}]}
{"smiles": "CCCCOC(=O)CCCCC(=O)OCCCC", "note": "[dibutyl adipate]", "values": [{"measurement": "efficacy of tretinoin formulations (rank order / activity in words)", "setting": "[3]", "value": "increases the efficacy and hence the topical bioavailability of tretinoin"}]}
{"smiles": "CCCCCCCCCCCCCCCC(=O)OC(C)C", "note": "[isopropyl palmitate]", "values": [{"measurement": "skin penetration enhancement of halobetasol propionate by solvent/enhancer, in words", "setting": "[2]; conclusions from Study I and Study II", "value": "did not enhance the penetration of halobetasol propionate from ULTRAVATE® Cream as compared to ULTRAVATE® Ointment"}]}
{"smiles": "CCCCCCCCCC[S+](C)[O-]", "note": "(stereo not drawn) [decyl methyl sulfoxide]", "values": [{"measurement": "skin permeation of oil-soluble drugs, in words", "setting": "[4]", "value": "generally do not increase skin permeation of oil-soluble drugs"}]}
{"smiles": "C[S+](C)[O-]", "note": "[dimethyl sulfoxide]", "values": [{"measurement": "side effects, in words", "setting": "[5]", "value": "causes in animals a foul taste and body odor, burning and erythema on the skin, a reduction in the relucency of the lens cortex and tissue necrosis"}]}
{"smiles": "CC(C)CCCCCCCCCCCCCCC(=O)OC(C)C", "note": "[isopropyl isostearate]", "values": [{"measurement": "skin penetration enhancement of halobetasol propionate by solvent/enhancer, in words", "setting": "[2]", "value": "did not enhance the penetration of halobetasol propionate from ULTRAVATE® Cream as compared to ULTRAVATE® Ointment"}]}
{"smiles": "CCC(=O)O[C@]1(C(=O)CCl)[C@@H](C)C[C@H]2[C@@H]3C[C@H](F)C4=CC(=O)C=C[C@]4(C)[C@@]3(F)[C@@H](O)C[C@@]21C", "note": "[halobetasol propionate]", "values": [{"measurement": "saturated solution of halobetasol propionate in the oil phase", "setting": "[6]", "value": 0.05, "unit": "wt %"}]}
{"smiles": "CN(C)C=O", "note": "[Dimethyl formamide, dimethyl formamide]", "values": [{"measurement": "side effects, in words", "setting": "[5]", "value": "cause a sensation of burning and erythema on the skin"}]}
